Results on eight compounds are retold here after patent US20080171687A1, “Compositions And Methods For The Preparation And Administration Of Poorly Water Soluble Drugs” (Abraxis Bioscience, Inc., priority 2004, published 2008).

The nature of one series: physchem. Particulars: organic solvent or mixture, thermodynamic from solid, Solubility In DMI (mg/ml).
For series [1] the following is noted: solvent dimethyl isosorbide (DMI); dissolved with gentle heating as needed.

Values after ≈ are worked out from the molar mass of the structure shown. Bounds are passed on as bounds.

A word on the solubility: it is the concentration that dissolves in the medium under given conditions. As for `CC[C@@]1(O)C(=O)OCc2c1cc1n(c2=O)Cc2cc3ccccc3nc2-1` [Campothecin], the solubility in the series “physchem” (solvent dimethyl isosorbide (DMI), dissolved with gentle heating as needed) was under 1 mg/mL.
Take `CC(=O)O[C@@]12CO[C@@H]1C[C@H](O)[C@@]1(C)C(=O)[C@H](O)C3=C(C)[C@@H](OC(=O)[C@H](O)[C@@H](NC(=O)OC(C)(C)C)c4ccccc4)C[C@@](O)([C@@H](OC(=O)c4ccccc4)[C@H]21)C3(C)C` [Docetaxel]: the solubility in “physchem” stood at 90 mg/mL (≈ 111 mM).
Still for that read-out and setting: to `CCC(C)n1ncn(-c2ccc(N3CCN(c4ccc(OCC5COC(Cn6cncn6)(c6ccc(Cl)cc6Cl)O5)cc4)CC3)cc2)c1=O` (centres unmarked) [Itraconazole] belongs 9.6 mg/mL (≈ 13.6 mM); to `COc1ccc2[nH]cc(CCNC(C)=O)c2c1` [Melatonin], 192 mg/mL (≈ 827 mM).
The same measure, in the same setting: to `COc1ccc2[nH]c([S+]([O-])Cc3ncc(C)c(OC)c3C)nc2c1` (centres unmarked) [Omeprazole] belongs 17.4 mg/mL (≈ 50.4 mM).
With `CC(C)c1cccc(C(C)C)c1O` [Propofol], in series [1], the “Solubility In DMI (mg/ml)” value was “completely”.
Consider `CO[C@H]1C[C@@H]2CC[C@@H](C)[C@@](O)(O2)C(=O)C(=O)N2CCCC[C@H]2C(=O)O[C@H]([C@H](C)C[C@@H]2CC[C@@H](O)[C@H](OC)C2)CC(=O)[C@H](C)/C=C(\C)[C@@H](O)[C@@H](OC)C(=O)[C@H](C)C[C@H](C)/C=C/C=C/C=C/1C` [Rapamycin], for which the solubility in “physchem” was determined as 121 mg/mL (≈ 132 mM).
Turning to `CCc1c2c(nc3ccc(O)cc13)-c1cc3c(c(=O)n1C2)COC(=O)[C@]3(O)CC` [SN-38], in series [1], the “Solubility In DMI” value was under 1 mg/mL.
